From US10219516B2, “Molecules having pesticidal utility, and intermediates, compositions, and processes, related thereto” (priority 2015, dated 2019)

Key:
[1] = tested on: Beet Armyworm (Spodoptera exigua, LAPHEG); assay: Bioassay on Beet Armyworm (BAW), 128-well diet tray assay; type: in vivo; settings: Beet Armyworm, 128-well diet tray assay, read-out: BAW rating
Procedure, shortened: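 Percent mortality, averaged across eight replicate wells, was scored after five to seven days at 25° C. under a 14:10 light-dark cycle. Each well's diet carried 50 μg/cm^2 of the dried test molecule and held one to five second instar larvae.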

[2] = tested on: Cabbage Looper (Trichoplusia ni, TRIPNI); assay: Bioassay on Cabbage Looper (CL), 128-well diet tray assay; type: in vivo; settings: Trichoplusia ni; Cabbage Looper, 128-well diet tray assay; read-out: CL rating
Procedure, shortened: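 Mortality of second instar larvae exposed to diet coated with 50 μg/cm^2 compound (acetone-water 90:10 vehicle, dried); 25° C., 5–7 days.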

Row | Structure (SMILES) | pest or weed control at 50 µg/cm2 [1] | pest or weed control at 50 µg/cm2 [2]
1 | CN(C(=O)c1cc(NC(=O)[C@H]2[C@H](c3cc(Cl)cc(Cl)c3)C2(Br)Br)ccc1Cl)c1ccc(F)cc1 (relative stereo) [PF7, trans-2-Chloro-5-(2,2-dibromo-3-(3,5-dichlorophenyl)cyclopropane-1-carboxamido)-N-(4-fluorophenyl)-N-methylbenzamide] | 50 to 100% | 50 to 100%
2 | CN(C(=O)OC(C)(C)C)c1ccc(NC(=O)c2cc(NC(=O)[C@H]3[C@H](c4cc(Cl)cc(Cl)c4)C3(Cl)Cl)ccc2Cl)cc1 (relative stereo) [PF12, trans-tert-Butyl-(4-(2-chloro-5-(2,2-dichloro-3-(3,5-dichlorophenyl)cyclopropane-1-carboxamido)benzamido)phenyl)(methyl)carbamate] | 50 to 100% | 50 to 100%
3 | CC(=O)N(C)c1ccc(NC(=O)c2cc(NC(=O)[C@H]3[C@H](c4cc(Cl)cc(Cl)c4)C3(Cl)Cl)ccc2Cl)cc1 (relative stereo) [PF14, trans-2-Chloro-5-(2,2-dichloro-3-(3,5-dichlorophenyl)cyclopropane-1-carboxamido)-N-(4-(N-methylacetamido)phenyl)benzamide] | 50 to 100% | 50 to 100%
4 | COCC(=O)Nc1ccc(NC(=O)c2cc(NC(=O)[C@H]3[C@H](c4cc(Cl)cc(Cl)c4)C3(Cl)Cl)ccc2Cl)cc1 (relative stereo) [PF27, trans-2-Chloro-5-(2,2-dichloro-3-(3,5-dichlorophenyl)cyclopropane-1-carboxamido)-N-(4-(2-methoxyacetamido)phenyl)benzamide] | 50 to 100% | 50 to 100%
5 | O=C(Cc1ccccc1)Nc1ccc(NC(=O)c2cc(NC(=O)[C@H]3[C@H](c4cc(Cl)cc(Cl)c4)C3(Cl)Cl)ccc2Cl)cc1 (relative stereo) [PF28, trans-2-Chloro-5-(2,2-dichloro-3-(3,5-dichlorophenyl)cyclopropane-1-carboxamido)-N-(4-(2-phenylacetamido)phenyl)benzamide] | 50 to 100% | 50 to 100%
6 | CN(C(=O)C(F)(F)F)c1ccc(NC(=O)c2cc(NC(=O)[C@H]3[C@H](c4cc(Cl)cc(Cl)c4)C3(Cl)Cl)ccc2Cl)cc1 (relative stereo) [PF29, trans-2-Chloro-5-(2,2-dichloro-3-(3,5-dichlorophenyl)cyclopropane-1-carboxamido)-N-(4-(2,2,2-trifluoro-N-methylacetamido)phenyl)benzamide] | 50 to 100% | 50 to 100%
7 | O=C(Nc1ccc(F)cc1)c1cc(NC(=O)[C@H]2[C@H](c3ccc(Cl)c(F)c3)C2(Cl)Cl)ccc1Cl (relative stereo) [PF34, trans-2-Chloro-5-(2,2-dichloro-3-(4-chloro-3-fluorophenyl)cyclopropane-1-carboxamido)-N-(4-fluorophenyl)benzamide] | 50 to 100% | 50 to 100%
8 | O=C(Nc1ccc(F)cc1F)c1cc(NC(=O)[C@H]2[C@H](c3cc(Cl)cc(Br)c3)C2(Cl)Cl)ccc1Cl (relative stereo) [PF39, 5-(trans-3-(3-Bromo-5-chlorophenyl)-2,2-dichlorocyclopropane-1-carboxamido)-2-chloro-N-(2,4-difluorophenyl)benzamide] | 50 to 100% | 50 to 100%
9 | CC(=O)Nc1ccc(NC(=O)c2cc(NC(=O)[C@H]3[C@H](c4ccc(Cl)c(Cl)c4)C3(Cl)Cl)ccc2Cl)c(F)c1 (relative stereo) [PF41, trans-N-(4-Acetamido-2-fluorophenyl)-2-chloro-5-(2,2-dichloro-3-(3,4-dichlorophenyl)cyclopropane-1-carboxamido)benzamide] | 50 to 100% | 50 to 100%
10 | Cc1cc(F)cc(C)c1NC(=O)c1cc(NC(=O)[C@H]2[C@H](c3cc(Cl)cc(Cl)c3)C2(Cl)Cl)ccc1Cl (relative stereo) [PF43, trans-2-Chloro-5-(2,2-dichloro-3-(3,5-dichlorophenyl)cyclopropane-1-carboxamido)-N-(4-fluoro-2,6-dimethylphenyl)benzamide] | 50 to 100% | 50 to 100%
11 | N#CSc1ccc(NC(=O)c2cc(NC(=O)[C@H]3[C@H](c4cc(Cl)cc(Cl)c4)C3(Cl)Cl)ccc2Cl)cc1 (relative stereo) [PF45, trans-2-Chloro-5-(2,2-dichloro-3-(3,5-dichlorophenyl)cyclopropane-1-carboxamido)-N-(4-thiocyanatophenyl)benzamide] | 50 to 100% | 50 to 100%
12 | Cc1cc(F)ccc1NC(=O)c1cc(NC(=O)[C@H]2[C@H](c3cc(Cl)c(Cl)c(Cl)c3)C2(Cl)Cl)ccc1Cl (relative stereo) [PF47, trans-2-Chloro-5-(2,2-dichloro-3-(3,4,5-trichlorophenyl)cyclopropane-1-carboxamido)-N-(4-fluoro-2-methylphenyl)benzamide] | 50 to 100% | 50 to 100%
13 | Cc1c(F)ccc(NC(=O)c2cc(NC(=O)[C@H]3[C@H](c4cc(Cl)cc(Cl)c4)C3(Cl)Cl)ccc2Cl)c1F (relative stereo) [PF55, trans-2-Chloro-5-(2,2-dichloro-3-(3,5-dichlorophenyl)cyclopropane-1-carboxamido)-N-(2,4-difluoro-3-methylphenyl)benzamide] | 50 to 100% | 50 to 100%
14 | Cc1cc(C(F)(C(F)(F)F)C(F)(F)F)cc(C)c1NC(=O)c1cc(NC(=O)[C@H]2[C@H](c3cc(Cl)cc(Cl)c3)C2(Cl)Cl)ccc1Cl (relative stereo) [PF60, trans-2-Chloro-5-(2,2-dichloro-3-(3,5-dichlorophenyl)cyclopropane-1-carboxamido)-N-(2,6-dimethyl-4-(perfluoropropan-2-yl)phenyl)benzamide] | 50 to 100% | 50 to 100%
15 | COc1ccc([C@H]2[C@H](C(=O)Nc3ccc(Cl)c(C(=O)Nc4ccc(F)cc4)c3)C2(Cl)Cl)cc1 (relative stereo) [PF65, trans-2-Chloro-5-(2,2-dichloro-3-(4-methoxyphenyl)cyclopropane-1-carboxamido)-N-(4-fluorophenyl)benzamide] | 50 to 100% | 50 to 100%
16 | O=C(Nc1ccc(F)c(C(F)(F)F)c1)c1cc(NC(=O)[C@H]2[C@H](c3cc(Cl)cc(Cl)c3)C2(Cl)Cl)ccc1Cl (relative stereo) [PF70, trans-2-Chloro-5-(2,2-dichloro-3-(3,5-dichlorophenyl)cyclopropane-1-carboxamido)-N-(4-fluoro-3-(trifluoromethyl)phenyl)benzamide] | 50 to 100% | 50 to 100%
17 | Cc1cc([N+](=O)[O-])ccc1NC(=O)c1cc(NC(=O)[C@H]2[C@H](c3cc(Cl)cc(Cl)c3)C2(Cl)Cl)ccc1Cl (relative stereo) [PF75, trans-2-Chloro-5-(2,2-dichloro-3-(3,5-dichlorophenyl)cyclopropane-1-carboxamido)-N-(2-methyl-4-nitrophenyl)benzamide] | 50 to 100% | 50 to 100%
18 | O=C(Nc1ccc(NC(=O)c2cc(NC(=O)[C@H]3[C@H](c4cc(Cl)cc(Cl)c4)C3(Cl)Cl)ccc2Cl)cc1)c1ccccc1 (relative stereo) [PF104, trans-N-(4-Benzamidophenyl)-2-chloro-5-(2,2-dichloro-3-(3,5-dichlorophenyl)cyclopropane-1-carboxamido)benzamide] | 50 to 100% | 50 to 100%
19 | N#CC1(C(=O)Nc2ccc(NC(=O)c3cc(NC(=O)[C@H]4[C@H](c5cc(Cl)cc(Cl)c5)C4(Cl)Cl)ccc3Cl)cc2)CC1 (relative stereo) [PF109, trans-2-Chloro-N-(4-(1-cyanocyclopropane-1-carboxamido)phenyl)-5-(2,2-dichloro-3-(3,5-dichlorophenyl)cyclopropane-1-carboxamido)benzamide] | 50 to 100% | 50 to 100%
20 | O=C(Nc1nc(C(F)(F)F)cs1)c1cc(NC(=O)[C@H]2[C@H](c3cc(Cl)cc(Cl)c3)C2(Cl)Cl)ccc1Cl (relative stereo) [PF134, trans-2-Chloro-5-(2,2-dichloro-3-(3,5-dichlorophenyl)cyclopropane-1-carboxamido)-N-(4-(trifluoromethyl)thiazol-2-yl)benzamide] | 50 to 100% | 50 to 100%
21 | Cc1ccc(-c2csc(NC(=O)c3cc(NC(=O)[C@H]4[C@H](c5cc(Cl)cc(Cl)c5)C4(Cl)Cl)ccc3Cl)n2)cc1 (relative stereo) [PF136, trans-2-Chloro-5-(2,2-dichloro-3-(3,5-dichlorophenyl)cyclopropane-1-carboxamido)-N-(4-(p-tolyl)thiazol-2-yl)benzamide] | 50 to 100% | 50 to 100%
22 | O=C(Nc1cc(C(F)(F)F)[nH]n1)c1cc(NC(=O)[C@H]2[C@H](c3cc(Cl)cc(Cl)c3)C2(Cl)Cl)ccc1Cl (relative stereo) [PF138, trans-2-Chloro-5-(2,2-dichloro-3-(3,5-dichlorophenyl)cyclopropane-1-carboxamido)-N-(5-(trifluoromethyl)-1H-pyrazol-3-yl)benzamide] | 50 to 100% | 50 to 100%
23 | COc1c(Cl)cc([C@H]2[C@H](C(=O)Nc3ccc(Cl)c(C(=O)Nc4ccc(F)cc4)c3)C2(Cl)Cl)cc1Cl (relative stereo) [PF156, trans-2-Chloro-5-(2,2-dichloro-3-(3,5-dichloro-4-methoxyphenyl)cyclopropane-1-carboxamido)-N-(4-fluorophenyl)benzamide] | 50 to 100% | 50 to 100%
